How the values were obtained:
Format in all cases: in vivo
[1] = system: barnyardgrass (Echinochloa crus-galli); experiment: Test G Pre-Emergence Protocol; conditions: Echinochloa crus-galli, pre-emergence, 312 h, evaluated after 13 days; for pest or weed control at 15.625 g/ha: 15.625 g ai/ha; for pest or weed control at 15.625 g/ha / pest or weed control at 250 g/ha: read-out: Barnyardgrass damage rating (100=total damage to plant; 0=no damage to plant); for pest or weed control at 62.5 g/ha: 62.5 g ai/ha, 100=total damage to plant, 0=no damage to plant, read-out: Barnyardgrass damage rating; for pest or weed control at 250 g/ha: 250 g ai/ha
Outline: (§1)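 Scores are visual damage ratings from 0 (no damage) to 100 (total plant kill), taken 13 days after treatment. Compound was sprayed one day post-sowing at 15.625, 62.5 or 250 g/ha in 50:50 acetone/water with 0.5% Tween 20.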

corn (Zea mays) [2] = experiment: Test G Pre-Emergence Protocol; conditions: Zea mays, pre-emergence, 312 h, evaluated after 13 days; for plant injury at 15.625 g/ha: 15.625 g ai/ha; for plant injury at 15.625 g/ha / plant injury at 250 g/ha: read-out: Corn damage rating (100=total damage to plant; 0=no damage to plant); for plant injury at 62.5 g/ha: 62.5 g ai/ha, 100=total damage to plant, 0=no damage to plant, read-out: Corn damage rating; for plant injury at 250 g/ha: 250 g ai/ha
Outline: as §1

[3] = system: giant foxtail (Setaria faberi); experiment: Test G Pre-Emergence Protocol; conditions: Setaria faberi, pre-emergence, 312 h, evaluated after 13 days; for pest or weed control at 15.625 g/ha: 15.625 g ai/ha; for pest or weed control at 15.625 g/ha / pest or weed control at 250 g/ha: read-out: Foxtail, Giant damage rating (100=total damage to plant; 0=no damage to plant); for pest or weed control at 62.5 g/ha: 62.5 g ai/ha, 100=total damage to plant, 0=no damage to plant, read-out: Foxtail, Giant damage rating; for pest or weed control at 250 g/ha: 250 g ai/ha
Outline: as §1

[4] = system: ivy-leaved morning glory (Ipomoea hederacea); experiment: Test G Pre-Emergence Protocol; conditions: Ipomoea, pre-emergence, 312 h, evaluated after 13 days; for pest or weed control at 15.625 g/ha: 15.625 g ai/ha; for pest or weed control at 15.625 g/ha / pest or weed control at 250 g/ha: read-out: Morningglory, Ivy-leaved damage rating (100=total damage to plant; 0=no damage to plant); for pest or weed control at 62.5 g/ha: 62.5 g ai/ha, 100=total damage to plant, 0=no damage to plant, read-out: Morningglory, Ivy-leaved damage rating; for pest or weed control at 250 g/ha: 250 g ai/ha
Outline: as §1

[5] = system: redroot pigweed (Amaranthus retroflexus); experiment: Test G Pre-Emergence Protocol; conditions: Amaranthus retroflexus, pre-emergence, 312 h, evaluated after 13 days; for pest or weed control at 15.625 g/ha: 15.625 g ai/ha; for pest or weed control at 15.625 g/ha / pest or weed control at 250 g/ha: read-out: Pigweed, Redroot damage rating (100=total damage to plant; 0=no damage to plant); for pest or weed control at 62.5 g/ha: 62.5 g ai/ha, 100=total damage to plant, 0=no damage to plant, read-out: Pigweed, Redroot damage rating; for pest or weed control at 250 g/ha: 250 g ai/ha
Outline: as §1

[6] = system: velvetleaf (Abutilon theophrasti); experiment: Test G Pre-Emergence Protocol; conditions: Abutilon theophrasti, pre-emergence, 312 h, evaluated after 13 days; for pest or weed control at 15.625 g/ha: 15.625 g ai/ha; for pest or weed control at 15.625 g/ha / pest or weed control at 250 g/ha: read-out: Velvetleaf damage rating (100=total damage to plant; 0=no damage to plant); for pest or weed control at 62.5 g/ha: 62.5 g ai/ha, 100=total damage to plant, 0=no damage to plant, read-out: Velvetleaf damage rating; for pest or weed control at 250 g/ha: 250 g ai/ha
Outline: as §1

[7] = system: barnyardgrass (Echinochloa crus-galli); experiment: Test G Post-Emergence Protocol; conditions: Echinochloa crus-galli, post-emergence, 312 h, read-out: Barnyardgrass damage rating; for pest or weed control at 15.625 g/ha: 15.625 g ai/ha, evaluated after 13 days (100=total damage to plant; 0=no damage to plant); for pest or weed control at 62.5 g/ha: 62.5 g ai/ha; for pest or weed control at 62.5 g/ha / pest or weed control at 250 g/ha: evaluated after 13 days, 100=total damage to plant, 0=no damage to plant; for pest or weed control at 250 g/ha: 250 g ai/ha
Outline: (§2)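 Scores run 0 (no damage) to 100 (total damage) and were taken 13 days after spraying. Plants had been raised in pots for 8 days under glasshouse control (24/16 °C, 14 h photoperiod, 65% humidity) and then treated at 15.625, 62.5 or 250 g/ha.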

corn (Zea mays) [8] = experiment: Test G Post-Emergence Protocol; conditions: Zea mays, post-emergence, 312 h, read-out: Corn damage rating; for plant injury at 15.625 g/ha: 15.625 g ai/ha, evaluated after 13 days (100=total damage to plant; 0=no damage to plant); for plant injury at 62.5 g/ha: 62.5 g ai/ha; for plant injury at 62.5 g/ha / plant injury at 250 g/ha: evaluated after 13 days, 100=total damage to plant, 0=no damage to plant; for plant injury at 250 g/ha: 250 g ai/ha
Outline: as §2

[9] = system: giant foxtail (Setaria faberi); experiment: Test G Post-Emergence Protocol; conditions: Setaria faberi, post-emergence, 312 h, read-out: Foxtail, Giant damage rating; for pest or weed control at 15.625 g/ha: 15.625 g ai/ha, evaluated after 13 days (100=total damage to plant; 0=no damage to plant); for pest or weed control at 62.5 g/ha: 62.5 g ai/ha; for pest or weed control at 62.5 g/ha / pest or weed control at 250 g/ha: evaluated after 13 days, 100=total damage to plant, 0=no damage to plant; for pest or weed control at 250 g/ha: 250 g ai/ha
Outline: as §2

[10] = system: ivy-leaved morning glory (Ipomoea hederacea); experiment: Test G Post-Emergence Protocol; conditions: Ipomoea, post-emergence, 312 h, read-out: Morningglory, Ivy-leaved damage rating; for pest or weed control at 15.625 g/ha: 15.625 g ai/ha, evaluated after 13 days (100=total damage to plant; 0=no damage to plant); for pest or weed control at 62.5 g/ha: 62.5 g ai/ha; for pest or weed control at 62.5 g/ha / pest or weed control at 250 g/ha: evaluated after 13 days, 100=total damage to plant, 0=no damage to plant; for pest or weed control at 250 g/ha: 250 g ai/ha
Outline: as §2

[11] = system: redroot pigweed (Amaranthus retroflexus); experiment: Test G Post-Emergence Protocol; conditions: Amaranthus retroflexus, post-emergence, 312 h, read-out: Pigweed, Redroot damage rating; for pest or weed control at 15.625 g/ha: 15.625 g ai/ha, evaluated after 13 days (100=total damage to plant; 0=no damage to plant); for pest or weed control at 62.5 g/ha: 62.5 g ai/ha; for pest or weed control at 62.5 g/ha / pest or weed control at 250 g/ha: evaluated after 13 days, 100=total damage to plant, 0=no damage to plant; for pest or weed control at 250 g/ha: 250 g ai/ha
Outline: as §2

[12] = system: velvetleaf (Abutilon theophrasti); experiment: Test G Post-Emergence Protocol; conditions: Abutilon theophrasti, post-emergence, 312 h, read-out: Velvetleaf damage rating; for pest or weed control at 15.625 g/ha: 15.625 g ai/ha, evaluated after 13 days (100=total damage to plant; 0=no damage to plant); for pest or weed control at 62.5 g/ha: 62.5 g ai/ha; for pest or weed control at 62.5 g/ha / pest or weed control at 250 g/ha: evaluated after 13 days, 100=total damage to plant, 0=no damage to plant; for pest or weed control at 250 g/ha: 250 g ai/ha
Outline: as §2

Row | SMILES | pest or weed control at 15.625 g/ha [1] | pest or weed control at 62.5 g/ha [1] | pest or weed control at 250 g/ha [1] | plant injury at 15.625 g/ha (corn (Zea mays) [2]) | plant injury at 62.5 g/ha (corn (Zea mays) [2]) | plant injury at 250 g/ha (corn (Zea mays) [2]) | pest or weed control at 15.625 g/ha [3] | pest or weed control at 62.5 g/ha [3] | pest or weed control at 250 g/ha [3] | pest or weed control at 15.625 g/ha [4] | pest or weed control at 62.5 g/ha [4] | pest or weed control at 250 g/ha [4] | pest or weed control at 15.625 g/ha [5] | pest or weed control at 62.5 g/ha [5] | pest or weed control at 250 g/ha [5] | pest or weed control at 15.625 g/ha [6] | pest or weed control at 62.5 g/ha [6] | pest or weed control at 250 g/ha [6] | pest or weed control at 15.625 g/ha [7] | pest or weed control at 62.5 g/ha [7] | also measured
1 | COc1cc(C)cc([C@@H]2CN(C)C(=O)[C@H]2C(=O)Nc2cccc(F)c2C)c1 (racemic) [Compound 1791] | 70% | 80% | 90% | 20% | 70% | 80% | 80% | 90% | 90% | 10% | 20% | 80% | 0% | 0% | 10% | 0% | 10% | 40% | 70% | 80% | pest or weed control at 250 g/ha [7]: 80%; plant injury at 15.625 g/ha (corn (Zea mays) [8]): 30%; plant injury at 62.5 g/ha (corn (Zea mays) [8]): 70%; plant injury at 250 g/ha (corn (Zea mays) [8]): 80%; pest or weed control at 15.625 g/ha [9]: 80%; pest or weed control at 62.5 g/ha [9]: 80%; pest or weed control at 250 g/ha [9]: 80%; pest or weed control at 15.625 g/ha [10]: 20%; pest or weed control at 62.5 g/ha [10]: 70%; pest or weed control at 250 g/ha [10]: 70%; pest or weed control at 15.625 g/ha [11]: 0%; pest or weed control at 62.5 g/ha [11]: 0%; pest or weed control at 250 g/ha [11]: 0%; pest or weed control at 15.625 g/ha [12]: 10%; pest or weed control at 62.5 g/ha [12]: 30%; pest or weed control at 250 g/ha [12]: 20%
2 | CN1C[C@H](c2ccc(C(F)(F)F)cc2)[C@@H](C(=O)Nc2cccc3c2C(=O)OC3)C1=O (racemic) [Compound 1669] | 0% | 0% | 10% | 0% | 0% | 0% | 0% | 20% | 60% | 0% | 0% | 10% | 0% | 10% | 20% | 0% | 0% | 10% | 0% | 30% | pest or weed control at 250 g/ha [7]: 70%; plant injury at 15.625 g/ha (corn (Zea mays) [8]): 10%; plant injury at 62.5 g/ha (corn (Zea mays) [8]): 0%; plant injury at 250 g/ha (corn (Zea mays) [8]): 0%; pest or weed control at 15.625 g/ha [9]: 30%; pest or weed control at 62.5 g/ha [9]: 50%; pest or weed control at 250 g/ha [9]: 80%; pest or weed control at 15.625 g/ha [10]: 0%; pest or weed control at 62.5 g/ha [10]: 20%; pest or weed control at 250 g/ha [10]: 60%; pest or weed control at 15.625 g/ha [11]: 0%; pest or weed control at 62.5 g/ha [11]: 0%; pest or weed control at 250 g/ha [11]: 30%; pest or weed control at 15.625 g/ha [12]: 0%; pest or weed control at 62.5 g/ha [12]: 0%; pest or weed control at 250 g/ha [12]: 0%
3 | CN1C[C@@H](c2ccc(C(F)(F)F)cc2)[C@H](C(=O)Nc2ccncc2F)C1=O (racemic) [Compound 1652] | 0% | 0% | 0% | 0% | 0% | 10% | 0% | 10% | 30% | 0% | 0% | 0% | 0% | 0% | 0% | 0% | 0% | 0% | 0% | 20% | pest or weed control at 250 g/ha [7]: 30%; plant injury at 15.625 g/ha (corn (Zea mays) [8]): 0%; plant injury at 62.5 g/ha (corn (Zea mays) [8]): 0%; plant injury at 250 g/ha (corn (Zea mays) [8]): 0%; pest or weed control at 15.625 g/ha [9]: 0%; pest or weed control at 62.5 g/ha [9]: 20%; pest or weed control at 250 g/ha [9]: 40%; pest or weed control at 15.625 g/ha [10]: 0%; pest or weed control at 62.5 g/ha [10]: 0%; pest or weed control at 250 g/ha [10]: 0%; pest or weed control at 15.625 g/ha [11]: 0%; pest or weed control at 62.5 g/ha [11]: 0%; pest or weed control at 250 g/ha [11]: 0%; pest or weed control at 15.625 g/ha [12]: 0%; pest or weed control at 62.5 g/ha [12]: 0%; pest or weed control at 250 g/ha [12]: 0%
